From patent US6500842B1, “8-hydroxy-7-substituted quinolines as anti-viral agents” (Pharmacia & Upjohn Company, priority 1996, dated 2002)
pIC50: −log10 of the molar value. “And” between values parts separate entries of the source, which are not always exact repeats. Identical values can stand only once. Like-named read-outs stand apart in the source and are kept apart here.

Legend:
[1] = system: HCMV; assay: CMV antiviral assay, cell culture based ELISA in human foreskin fibroblast cells; parameters: species or system human cytomegalovirus (HCMV); details: Table 4; for pIC50: antiviral, read-out: IC50 (AV)
Procedure: Compounds are tested for direct antiviral activity against HCMV using a cell culture based assay. An ELISA (enzyme linked immunosorbant assay) format is used as described in W. A. Tatarowicz, N. S. Lurain and K. D. Thompson, J. Virol. Meth., 35:207-215 (1991). Human foreskin fibroblast cells are infected with HCMV at a multiplicity of 0.025 plaque forming units per microtiter plate well for a period of 90 minutes. The virus inocula is removed and a suspension of test compound prepared in tissue culture media is added for a period of 4 days. The growth media is aspirated and replaced with 95% ethanol to allow fixation of virus infected cultures. The ethanol is removed and the wells are washed twice with saline. A solution of 2% dry fat milk, 1% bovine sera albumin prepared in saline is added to wells to allow for non-specific binding of protein material to plastic surfaces for 1 hr. Murine monoclonal antibody prepared in saline directed against the late (65 KD) matrix protein of HCMV is added to test wells for 1 hr. The wells are washed twice and antibody, conjugated with the enzyme horse radish peroxidase, with specificity against murine IgG is added to test wells for 1 hr. Test wells are washed three times with saline. A solution of o-phenylene diamine, a substrate for horse radish peroxidase is added for 15 minutes at which time enzymatic conversion occurs indicating reactivity of the enzyme with its substrate. This conversion is evident as a color reaction which was spectrophoretically monitored at 490 nm. The intensity of the color indirectly reflects the presence of antibody directed against the viral 65 KD matrix antigen. The presence of the viral matrix antigen refects the amount of HCMV replication. Thus, test wells, in which little viral replication has occurred, would have little or no antibody binding and are present with low levels of color. Non-infected wells serve as the assay background control.

[2] = Human betaherpesvirus 5, Fibroblast

Row | Compound | % Inh −AV ([1]; Conc 1.00e+001 uM) | % Inh −AV ([1]; Conc 2.00e+000 uM) | % Inh −AV ([1]; Conc 2.00e+001 uM) | % Inh −AV ([1]; Conc 4.00e+000 uM) | % Inh −AV ([1]; Conc 4.00e+001 uM) | % Inh −AV ([1]; Conc 5.00e+001 uM) | % Inh −AV ([1]; Conc 8.00e+000 uM) | pIC50 [1] | melting point | % Inh −AV ([1]; Conc 8.00e−001 uM) | pIC50 [1, 2] | % Inh −AV ([1]; Conc 1.25e+000 uM) | % Inh −AV ([1]; Conc 2.50e+000 uM) | % Inh −AV ([1]; Conc 4.00e−001 uM) | % Inh −AV ([1]; Conc 5.00e+000 uM)
1 | CC(C)(C)[Si](C)(C)c1cc(Cl)c2cccnc2c1O [Example 41, 5-Chloro-7-[(1,1-dimethylethyl)dimethylsilyl]-8-quinolinol] | 92.0% | 56.0% | 86.0% and 76.0% | 65.0% and 70.0% | 99.0% and 76.0% | 78.0% | 78.0% | 5.42 | 107 to 108 °C |  |  |  |  |  | 
2 | C[Si](C)(c1ccccc1)c1cc(Cl)c2cccnc2c1O [Example 45, 5-Chloro-7-(dimethylphenylsilyl)-8-quinolinol] |  |  | 83.0% | 75.0% | 89.0% |  |  |  | 101 to 103 °C | 39.0% | 5.92 |  |  |  | 
3 | C[Si](C)(C)c1cc(Cl)c2cccnc2c1O [Example 44, 5-Chloro-7-(trimethylsilyl)-8-quinolinol] |  |  |  | 65.0% and 59.0% |  |  |  |  | 109 to 111 °C |  | 5.57 |  |  |  | 
4 | CC(C)[Si](c1cc(Cl)c2cccnc2c1O)(C(C)C)C(C)C [Example 42] |  |  | 88.0% and 99.0% | 51.0% and 89.0% | 92.0% and 99.0% |  |  | 5.28 | 107 to 108 °C | 0.0% |  |  |  |  | 
5 | CC(C)(C)[Si](c1ccccc1)(c1ccccc1)c1cc(Cl)c2cccnc2c1O [Example 43, 5-Chloro-7-[(1,1,-dimethylethyl)diphenylsilyl]-8-quinolinol] | 99.0% |  | 90.0% | 77.0% and 88.0% | 85.0% and 81.0% |  |  | 6.92 and 6.36 | 133 to 139 °C | 65.0% and 43.0% |  | 87.0% | 99.0% | 50.0% | 99.0%
